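Values below derive from 48-hour exposures of cells grown in 96-well plates, with endpoints linearly interpolated between the two concentrations bracketing the appropriate inhibition level. GI50 marks 50% less growth.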 Active and inactive are the calls of the source. No stated cut-off is given here; in the data, active = GI50 up to about 1.1 µM and inactive = higher.
Columns and labels:
Assay in all cases: inhibition of tumour cell growth, NCI panel, 48 h
[1] = system: SNB-19
[2] = system: CCRF-CEM
[3] = system: CAKI-1
[4] = system: NCI-H226
[5] = system: EKVX
[6] = system: UACC-62
[7] = system: SK-MEL-2
[8] = system: HL-60
[9] = system: UACC-257
[10] = system: OVCAR-5
[11] = system: A498
[12] = system: M14
[13] = system: Hs-578T
[14] = system: MCF7
[15] = system: SF-268
[16] = system: U-251
[17] = system: LOX IMVI
[18] = system: PC-3
[19] = system: UO-31
[20] = system: SF-295
[21] = system: NCI-H522
[22] = system: RXF 393
[23] = system: SK-MEL-5
[24] = system: SK-MEL-28
[25] = system: IGROV-1
[26] = system: HT-29
[27] = system: RPMI-8226
[28] = system: T47D
[29] = system: 786-0
[30] = system: SN12C
[31] = system: HCC 2998
[32] = system: MOLT-4
[33] = system: NCI-H23
[34] = system: TK-10
[35] = system: HOP-92
[36] = system: NCI-H460
[37] = system: OVCAR-3
[38] = system: DU-145
[39] = system: HCT-116
[40] = system: SNB-75
[41] = system: HCT-15
[42] = system: SF-539
[43] = system: BT-549
[44] = system: KM12
[45] = system: SK-OV-3
[46] = system: OVCAR-4
[47] = system: HOP-62
[48] = system: SW-620
[49] = system: NCI/ADR-RES
[50] = system: MDA-N
[51] = system: MDA-MB-231
[52] = system: ACHN
[53] = system: K562
[54] = system: MDA-MB-435
[55] = system: COLO 205
[56] = system: Malme-3M
[57] = system: A549
[58] = system: OVCAR-8
[59] = system: SR

## CN(C)/C=N/c1cc(=O)n(C)c(=O)n1C
[1]
  GI50: > 100 µM (inactive)
[2]
  GI50: > 100 µM (inactive)
[3]
  GI50: > 100 µM (inactive)
[4]
  GI50: > 100 µM (inactive)
[5]
  GI50: > 100 µM (inactive)
[6]
  GI50: > 100 µM (inactive)
[7]
  GI50: > 100 µM (inactive)
[8]
  GI50: > 100 µM (inactive)
[9]
  GI50: > 100 µM (inactive)
[10]
  GI50: > 100 µM (inactive)
[11]
  GI50: > 100 µM (inactive)
[12]
  GI50: > 100 µM (inactive)
[13]
  GI50: > 100 µM (inactive)
[14]
  GI50: > 100 µM (inactive)
[15]
  GI50: > 100 µM (inactive)
[16]
  GI50: > 100 µM (inactive)
[17]
  GI50: > 100 µM (inactive)
[18]
  GI50: > 100 µM (inactive)
[19]
  GI50: > 100 µM (inactive)
[20]
  GI50: > 100 µM (inactive)
[21]
  GI50: > 100 µM (inactive)
[22]
  GI50: > 100 µM (inactive)
[23]
  GI50: > 100 µM (inactive)
[24]
  GI50: > 100 µM (inactive)
[25]
  GI50: > 100 µM (inactive)
[26]
  GI50: > 100 µM (inactive)
[27]
  GI50: > 100 µM (inactive)
[28]
  GI50: > 100 µM (inactive)
[29]
  GI50: > 100 µM (inactive)
[30]
  GI50: > 100 µM (inactive)
[31]
  GI50: > 100 µM (inactive)
[32]
  GI50: > 100 µM (inactive)
[33]
  GI50: > 100 µM (inactive)
[34]
  GI50: > 100 µM (inactive)
[35]
  GI50: > 100 µM (inactive)
[36]
  GI50: > 100 µM (inactive)
[37]
  GI50: > 100 µM (inactive)
[38]
  GI50: > 100 µM (inactive)
[39]
  GI50: > 100 µM (inactive)
[40]
  GI50: > 100 µM (inactive)
[41]
  GI50: > 100 µM
[42]
  GI50: > 100 µM (inactive)
[43]
  GI50: > 100 µM (inactive)
[44]
  GI50: > 100 µM (inactive)
[45]
  GI50: > 100 µM (inactive)
[46]
  GI50: > 100 µM (inactive)
[47]
  GI50: > 100 µM (inactive)
[48]
  GI50: > 100 µM (inactive)
[49]
  GI50: > 100 µM (inactive)
[50]
  GI50: > 100 µM (inactive)
[51]
  GI50: > 100 µM (inactive)
[52]
  GI50: > 100 µM (inactive)
[53]
  GI50: > 100 µM (inactive)
[54]
  GI50: > 100 µM (inactive)
[55]
  GI50: > 100 µM (inactive)
[56]
  GI50: > 100 µM (inactive)
[57]
  GI50: > 100 µM (inactive)
[58]
  GI50: > 100 µM (inactive)

## COC(=O)[C@H](C)[C@@H]1CC[C@](C)(CCC2=C(C)CCCC2(C)C)OO1
[1]
  GI50: > 25 µM (inactive)
[2]
  GI50: 19.5 µM (inactive)
[3]
  GI50: > 25 µM (inactive)
[5]
  GI50: > 25 µM (inactive)
[6]
  GI50: > 25 µM (inactive)
[7]
  GI50: > 25 µM (inactive)
[8]
  GI50: 12 µM (inactive)
[9]
  GI50: > 25 µM (inactive)
[10]
  GI50: > 25 µM (inactive)
[12]
  GI50: > 25 µM (inactive)
[13]
  GI50: > 25 µM (inactive)
[14]
  GI50: > 25 µM (inactive)
[15]
  GI50: > 25 µM (inactive)
[16]
  GI50: > 25 µM (inactive)
[17]
  GI50: 8.02 µM (inactive)
[18]
  GI50: > 25 µM (inactive)
[19]
  GI50: 23.7 µM (inactive)
[20]
  GI50: > 25 µM (inactive)
[21]
  GI50: 16.1 µM (inactive)
[22]
  GI50: > 25 µM (inactive)
[23]
  GI50: > 25 µM (inactive)
[24]
  GI50: > 25 µM (inactive)
[25]
  GI50: > 25 µM (inactive)
[26]
  GI50: > 25 µM (inactive)
[27]
  GI50: > 25 µM (inactive)
[28]
  GI50: > 25 µM (inactive)
[29]
  GI50: > 25 µM (inactive)
[30]
  GI50: > 25 µM (inactive)
[31]
  GI50: > 25 µM (inactive)
[32]
  GI50: > 25 µM (inactive)
[33]
  GI50: > 25 µM (inactive)
[34]
  GI50: > 25 µM (inactive)
[35]
  GI50: > 25 µM (inactive)
[36]
  GI50: > 25 µM (inactive)
[37]
  GI50: > 25 µM (inactive)
[38]
  GI50: > 25 µM (inactive)
[39]
  GI50: > 25 µM (inactive)
[40]
  GI50: > 25 µM (inactive)
[41]
  GI50: > 25 µM
[42]
  GI50: > 25 µM (inactive)
[43]
  GI50: > 25 µM (inactive)
[44]
  GI50: > 25 µM (inactive)
[45]
  GI50: > 25 µM (inactive)
[46]
  GI50: > 25 µM (inactive)
[47]
  GI50: > 25 µM (inactive)
[48]
  GI50: > 25 µM (inactive)
[59]
  GI50: > 25 µM (inactive)
[49]
  GI50: > 25 µM (inactive)
[50]
  GI50: > 25 µM (inactive)
[51]
  GI50: > 25 µM (inactive)
[52]
  GI50: > 25 µM (inactive)
[53]
  GI50: 14.3 µM (inactive)
[54]
  GI50: > 25 µM (inactive)
[55]
  GI50: > 25 µM (inactive)
[56]
  GI50: > 25 µM (inactive)
[57]
  GI50: > 25 µM (inactive)
[58]
  GI50: > 25 µM (inactive)
